Results: US7417169B2, “Amino alcohol derivatives, medicinal composition containing the same, and use of these” (Kissei Pharmaceutical Co., Ltd., priority 2003, dated 2008)

How the values were obtained:
Assay type in all cases: cell-based
human β2-adrenoceptor = target: T1, human β2-adrenoceptor (Homo sapiens, UniProt P07550, E27Q/G16R); assay: Measurement of agonistic activities on human β2-adrenoceptor (cAMP accumulation in transfected CHO cells); settings: CHO cells expressing human β2-adrenoceptor; for EC50: cAMP, concentration giving 50% of the maximum reaction of isoproterenol, read-out: β2 receptor EC50; for Emax: maximum reaction relative to isoproterenol (100%), read-out: β2 receptor I.A. (intrinsic activity)
T1 construct: expressed in transfected cells; host or cells: CHO cells (transient transfection, Lipofectamine 2000)
Source text: (§1) Measurement of Agonistic Activities on Human β1- and β2-Adrenoceptors
The primer which added a restriction enzyme recognition region to 5′ end was designed on the basis of the base information that is registered with GenBank/EMBL data base as Accession No. M15169, and the clone was obtained by performance of PCR using human bladder origin cDNA as a template. The clone was inserted into pGEM-T vector and was amplified in Escherichia coli bacteria as a plasmid, and it was purified and the sequence of full length and around of insertion sequence determined by means of 310 Genetic Analyzer (ABI).
2) Preparation of Human β2-Adreoceptor Expressed Cells
(§2) The plasmid (80 ng) for expression obtained in the previous section was transfected into 5×10^4 CHO cells suspended in DMEM (Gibco-BRL: LIFE TECHNOLOGIES) containing 10% fetal bovine serum (Sanko Junyaku) by means of Lipofectoamine2000 (Invitrogen). These cells were dispensed in 96 well plate by 5×10^4 cells/100 μL per well and were cultured under an atmosphere of 5% CO2 at 37° C. for 24 hours, and were used for the assay.
(§3) 3. Measurement of Agonistic Activities on Human β1- and β2-Adrenoceptors
(§4) Test compounds were dissolved in 50% dimethyl sulfoxide to make a 10^−2 M solution. Then, a series of 1:10 dilutions containing a maximal dose of 2×10^−4 M were prepared using D-PBS (−) (Gibco-BRL: LIFE TECHNOLOGIES). The series were used for a testing sample to measure activity. The culture medium of CHO cells of previous section was removed and washed twice with 200 μL D-PBS (−) per well. After that, 50 μL of 3-isobutyl-1-methylxanthine (SIGMA, 1 mM) was added and leaved at rest for 5 minutes, and 50 μL of testing sample were added in them and they were incubated under an atomosphere of 5% CO2 at 37° C. for 30 minutes. cAMP concentrations accumulated in cells were reacted in cAMP-Screen (Applied Biosystems) and were detected by Microplate Luminometer TR717 (Applied Biosystems). The maximum reaction of isoproterenol, a positive contrast, was taken as a 100%, and the concentration of a test compound which gave reaction of the 50% was calculated as an EC50 value. In addition, the ratio of the maximum reaction of the test compound against the maximum reaction of isoproterenol was calculated as an intrinsic activity (I.A.).
(§5) (R)-3′-[[2-[[2-(3-chlorophenyl)-2-hydroxyethyl]aminoethoxy]-[1,1′-biphenyl]-3-carboxylic acid which was described in WO99/65877 was also examined as a comparison example.

human β3-adrenoceptor = target: T2, human β3-adrenoceptor (Homo sapiens, UniProt P13945); assay: Measurement of agonistic activities on human β3-adrenoceptor (cAMP accumulation in SK-N-MC cells); settings: for EC50: SK-N-MC cells with CGP-20712A, cAMP, concentration giving 50% of the maximum reaction of isoproterenol, read-out: β3 receptor EC50; for Emax: SK-N-MC cells, maximum reaction relative to maximum reaction of isoproterenol (100%), read-out: β3 receptor I.A. (intrinsic activity)
T2 construct: SK—N-MC cells (American Type Culture Collection, 1×10^5cell/mL) were put in 96 well plates; host or cells: SK-N-MC cells
Experimental: Measurement of Agonistic Activities on Human β3-Adrenoceptor
Test compounds were dissolved in 50% dimethyl sulfoxide to make a 10^−2 M solution. Then, a series of 1:10 dilutions containing a maximal dose of 1×10^−4 M were prepared using D-PBS (−) (Gibco-BRL: LIFE TECHNOLOGIES). The series were used for a testing sample to measure activity. SK—N-MC cells (American Type Culture Collection, 1×10^5cell/mL) were put in 96 well plates by 100 μL and were cultured for about 24 hours. Forty μL of D-PBS and 20 μL of CGP-20712A (FUNAKOSHI, 3×10^−6 mol/L D-PBS solution) were added in them and incubated for 20 minutes. After that, 20 μL of 3-isobutyl-1-methylxanthine (SIGMA, 1×10^−2 mol/L D-PBS solution) and 20 μL of testing sample were added in them and they were incubated under an atmosphere of 5% CO2 at 37° C. for 30 minutes. cAMP concentrations accumulated in cells were reacted in cAMP-Screen (Applied Biosystems) and were detected by Microplate Luminometer TR717 (Applied Biosystems). The maximum reaction of isoproterenol, a positive contrast, was taken as a 100%, and the concentration of a test compound which gave reaction of the 50% was calculated as an EC50 value. In addition, the ratio of the maximum reaction of the test compound against the maximum reaction of isoproterenol was calculated as an intrinsic activity (I.A.). (R)-3′-[[2-[[2-(3-chlorophenyl)-2-hydroxyethyl]aminoethoxy]-[1,1′-biphenyl]-3-carboxylic acid which was described in WO99/65877 was also examined as a comparison example.

human β1-adrenoceptor = target: T3, human β1-adrenoceptor (Homo sapiens, UniProt P08588); assay: Measurement of agonistic activities on human β1-adrenoceptor (cAMP accumulation in transfected CHO cells); settings: CHO cells expressing human β1-adrenoceptor; for Emax: maximum reaction relative to isoproterenol (100%), read-out: β1 receptor I.A. (intrinsic activity); for EC50: cAMP, concentration giving 50% of the maximum reaction of isoproterenol, read-out: β1 receptor EC50
T3 construct: Both ends of a domain including full length of human β1-adrenoceptor were amplified; expressed in transfected cells; host or cells: CHO cells (transient transfection of pCI-neo plasmid, Lipofectamine 2000)
Source text: as §1
Both ends of a domain including full length of human β1-adrenoceptor were amplified on the basis of DNA base information that is registered with GenBank/EMBL data base as Accession No. J03019. DNA fragment which was amplified was inserted into a vector for cloning and amplified in Escherichia coli bacteria. The plasmid which was cloned was inserted into a vector pCI-neo (Promega) for protein expression and plasmid DNA was extracted and purified, then it was used for a preparation of the following expression cells.
1) Preparation of Human β1-Adrenoceptor Expressed Cells
as §2, with “(320” for “(80”, “expression which was” for “expression”
as §3, §4, §5

T3 sequence (P08588 whole entry): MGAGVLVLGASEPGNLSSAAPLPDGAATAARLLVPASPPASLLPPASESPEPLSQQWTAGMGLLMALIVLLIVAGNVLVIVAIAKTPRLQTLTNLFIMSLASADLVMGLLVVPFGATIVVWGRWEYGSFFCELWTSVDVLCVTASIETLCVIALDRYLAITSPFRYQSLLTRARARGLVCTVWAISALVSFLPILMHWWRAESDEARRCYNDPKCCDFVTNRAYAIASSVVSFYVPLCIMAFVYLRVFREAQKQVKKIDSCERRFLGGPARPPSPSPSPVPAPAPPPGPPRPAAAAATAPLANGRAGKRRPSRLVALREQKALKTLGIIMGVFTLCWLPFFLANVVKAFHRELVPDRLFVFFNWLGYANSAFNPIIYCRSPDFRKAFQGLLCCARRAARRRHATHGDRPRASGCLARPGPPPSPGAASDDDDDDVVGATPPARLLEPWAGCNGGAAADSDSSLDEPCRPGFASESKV
T2 sequence (P13945 whole entry): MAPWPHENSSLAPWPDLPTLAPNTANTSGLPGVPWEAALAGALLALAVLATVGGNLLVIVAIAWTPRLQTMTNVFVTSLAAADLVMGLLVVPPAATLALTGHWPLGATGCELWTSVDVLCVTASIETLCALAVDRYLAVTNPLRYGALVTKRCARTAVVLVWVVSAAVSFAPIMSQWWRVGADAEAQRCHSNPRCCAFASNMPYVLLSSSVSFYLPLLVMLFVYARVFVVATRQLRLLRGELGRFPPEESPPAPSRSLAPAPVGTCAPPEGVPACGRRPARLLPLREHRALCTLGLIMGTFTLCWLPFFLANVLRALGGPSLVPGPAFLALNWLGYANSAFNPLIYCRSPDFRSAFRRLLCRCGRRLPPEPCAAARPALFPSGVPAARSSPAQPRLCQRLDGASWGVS
T1 sequence (P07550 whole entry G16R/E27Q): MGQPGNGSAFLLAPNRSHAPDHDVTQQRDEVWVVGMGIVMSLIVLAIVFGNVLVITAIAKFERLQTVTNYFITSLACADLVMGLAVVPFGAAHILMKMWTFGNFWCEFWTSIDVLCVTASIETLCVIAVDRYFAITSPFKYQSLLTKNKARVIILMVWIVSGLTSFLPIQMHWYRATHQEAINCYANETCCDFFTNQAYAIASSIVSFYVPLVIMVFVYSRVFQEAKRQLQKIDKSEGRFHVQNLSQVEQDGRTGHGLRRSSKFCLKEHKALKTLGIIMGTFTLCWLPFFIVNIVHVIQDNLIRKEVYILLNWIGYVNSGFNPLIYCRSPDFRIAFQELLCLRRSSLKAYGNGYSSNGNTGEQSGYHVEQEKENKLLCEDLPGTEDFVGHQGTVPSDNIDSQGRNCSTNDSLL

EC50 (human β2-adrenoceptor) [nM]	Emax (human β2-adrenoceptor) [%]	EC50 (human β3-adrenoceptor) [nM]	Emax (human β3-adrenoceptor) [%]	Emax (human β1-adrenoceptor) [%]	EC50 (human β1-adrenoceptor) [nM]	Structure (SMILES)
200	60	14.2	222	49	–	Cc1cc(-c2ccc(OCC(=O)O)cc2)cc(C)c1OCCN[C@@H](C)[C@H](O)c1ccc(O)c(NS(C)(=O)=O)c1 [Compound 9, (4′-{2-[(1S,2R)-2-Hydroxy-2-(4-hydroxy-3-methanesulfonylaminophenyl)-1-methylethylamino]ethoxy}-3′,5′-dimethylbiphenyl-4-yloxy)acetic acid]
–	15	–	27	60	742	O=C(O)c1cccc(-c2cccc(OCCNC[C@H](O)c3cccc(Cl)c3)c2)c1 [comparison, reference compound]
4490	61	57.1	154	86	9330	CS(=O)(=O)Nc1cc([C@@H](O)CNCCOc2ccc(-c3ccc(C(=O)O)c(C(=O)O)c3)cc2)ccc1O [Compound 21, 4′-{2-[(R)-2-Hydroxy-2-(4-hydroxy-3-methanesulfonylaminophenyl)ethylamino]ethoxy}biphenyl-3,4-dicarboxylic acid]
–	27	19.3	112	85	1670	CCOc1cc(-c2ccc(OCCNC[C@H](O)c3ccc(O)c(NS(C)(=O)=O)c3)cc2)ccc1C(=O)O [Compound 28, 3-Ethoxy-4′-{2-[(R)-2-hydroxy-2-(4-hydroxy-3-methanesulfonylaminophenyl)ethylamino]ethoxy}biphenyl-4-carboxylic acid]
